Tests used:
[1] = target: T1, PBP3 (Pseudomonas aeruginosa, UniProt G3XD46); assay: biochemical; assay type: binding, P. aeruginosa PAO1; conditions: PAO1 membranes 0.5 mg/mL, 30 min, 25 µM bocillin FL
T1 construct: PBP-containing membranes were isolated by ultracentrifugation; endogenous in cells; host or cells: P. aeruginosa PAO1 wild type (membrane preparations or intact cells)
Procedure: PBP-binding affinity was determined using previously described methods. Briefly, P. aeruginosa PAO1 cultures grown to the midexponential phase (7.6 log10 CFU/mL) were incubated in CAMHB at 37 °C and 180 rpm, washed and centrifuged (3220× g for 10 min at 4 °C). Bacterial pellets were washed in 30 mL of PBS buffer (pH 7.5), resuspended in 10 mL of PBS and sonicated at 40% amplitude for three 2 min bursts (while immersed in an ice bath) and centrifuged at 3220× g for 15 min at 4 °C. PBP-containing membranes were isolated by ultracentrifugation at 150,000× g for 30 min at 4 °C. Total protein concentrations were measured through the Bradford method.
Subsequently, the fluorescent penicillin bocillin FL was added to a 25 μM final concentration. Labeled PBPs were denatured and separated through 4–15% SDS–polyacrylamide gel electrophoresis. Labeled PBPs were visualized using a Typhoon FLA 9500 biomolecular imager (GE Healthcare Bio-Sciences AB, Uppsala, Sweden) (excitation at 488 nm and emission at 530 nm), and binding was determined from at least three independent experiments using ImageQuant TL software v8.1.0.0 (GE Healthcare Bio-Sciences AB, Uppsala, Sweden).

[2] = target: T2, PBP4 (Pseudomonas aeruginosa, UniProt Q9HZG1); assay: Intact cells' time-course of PBP-binding assay; assay type: cell-based, P. aeruginosa PAO1; conditions: 1 h; intact PAO1 cells, 4 µg/mL avibactam, 60 min; read-out: PBP4 fraction bound
Procedure: (§1) Figure 2 Time-course of intact cells and isolated PBP-binding assay. P. aeruginosa PAO1 cultures (a) and isolated PBP-containing membrane preparations (b) were incubated for 15, 30 and 60 min in the presence of 4 µg/mL avibactam (AVI). After isolating PBP-containing membranes, preparations were labeled with 25 µM bocillin FL. The graphs represent the PBP fraction unbound relative to each time control over time. The mean PBP fraction unbound values from at least three independent experiments ± standard deviations are shown.
(§2) P. aeruginosa PAO1 cultures grown to the midexponential phase (7.6 log10 CFU/mL) were preincubated in cation-adjusted Mueller–Hinton broth (CAMHB) at 37 °C (180 rpm) for 20 min. Afterwards, 4 µg/mL of avibactam (AVI) was added, and the bacterial cultures were incubated (37 °C, 180 rpm). Control and treatment samples were taken after 15, 30 and 60 min incubation, kept in ice and centrifuged (3220× g for 10 min at 4 °C). The bacterial pellets were washed in 30 mL phosphate-buffered saline (PBS) (pH 7.5) four times, resuspended in 10 mL of PBS and sonicated by using a Digital Sonifier Unit model S-450D (Branson Ultrasonics Corp., Danbury, CT, USA) at 40% amplitude for three 2 min bursts (while immersed in an ice bath) and centrifuged at 3220× g for 15 min at 4 °C. Membranes containing the PBPs were isolated by ultracentrifugation at 150,000× g for 30 min at 4 °C using an Optima L100XP Ultra centrifuge (Beckman Coulter, Inc., Palo Alto, CA, USA) and were resuspended in 60 μL of PBS. Total protein content was measured using the Quick Start Bradford protein assay kit with bovine serum albumin as a standard (Bio-Rad Laboratories, Hercules, CA, USA), according to the manufacturer’s instructions. To determine the PBP fraction unbound, membranes containing PBPs (20 μL, at 0.5 mg/mL) were labeled with a 25 μM concentration of the fluorescent penicillin bocillin FL [32]. Labeled PBPs were denatured and separated through 4–15% SDS–polyacrylamide gel electrophoresis (Bio-Rad Laboratories, Hercules, CA, USA). Labeled PBPs were visualized using a Typhoon FLA 9500 biomolecular imager (GE Healthcare Bio-Sciences AB, Uppsala, Sweden) (excitation at 488 nm and emission at 530 nm), and binding to different PBPs was determined from at least three independent experiments using ImageQuant TL software v8.1.0.0 (GE Healthcare Bio-Sciences AB, Uppsala, Sweden).

[3] = target: T3, PBP2 (Pseudomonas aeruginosa, UniProt Q9X6V3); assay: Intact cells' time-course of PBP-binding assay; assay type: cell-based, P. aeruginosa PAO1; conditions: intact PAO1 cells, 4 µg/mL avibactam, 60 min
T3 construct: PBP-containing membranes were isolated by ultracentrifugation; endogenous in cells; host or cells: P. aeruginosa PAO1 wild type (membrane preparations or intact cells)
Procedure: as §1, §2

[4] = target: T1, PBP3; assay: Intact cells' time-course of PBP-binding assay; assay type: cell-based, P. aeruginosa PAO1; conditions: intact PAO1 cells, 4 µg/mL avibactam, up to 60 min
Procedure: as §1, §2

[5] = target: T4, PBP1a (Pseudomonas aeruginosa, UniProt Q07806); assay: Intact cells' time-course of PBP-binding assay; assay type: cell-based, P. aeruginosa PAO1; conditions: intact PAO1 cells, 4 µg/mL avibactam, up to 60 min
T4 construct: PBP-containing membranes were isolated by ultracentrifugation; endogenous in cells; host or cells: P. aeruginosa PAO1 wild type (membrane preparations or intact cells)
Procedure: as §1, §2

[6] = target: T5, PBP5/6 (Pseudomonas aeruginosa, UniProt G3XD74); assay: Intact cells' time-course of PBP-binding assay; assay type: cell-based, P. aeruginosa PAO1; conditions: intact PAO1 cells, 4 µg/mL avibactam, up to 60 min
Procedure: as §1, §2

[7] = target: PBP1b (Pseudomonas aeruginosa, UniProt G3XD31); assay: Intact cells' time-course of PBP-binding assay; assay type: cell-based, P. aeruginosa PAO1; conditions: 1 h; intact PAO1 cells, 4 µg/mL avibactam, 60 min; read-out: PBP1b fraction bound
Procedure: as §1, §2

[8] = target: T2, PBP4; assay: Isolated PBP-containing membranes time-course binding assay; set-up: species or system P. aeruginosa PAO1; conditions: isolated PAO1 membranes, 4 µg/mL avibactam, 15-60 min; read-out: PBP4 total fraction bound
Procedure: as §1
(§3) In parallel to the aforementioned assay, we performed analogous experiments in which isolated PBP-containing membrane preparations instead of intact cells were pre-exposed to avibactam. Briefly, membrane preparations containing PBPs were obtained by following previously described protocols and were incubated for 15, 30 and 60 min at 37 °C in the presence of 4 µg/mL avibactam and were afterwards labeled with bocillin FL (25 μM). Determination of the PBP fraction unbound was performed as described in the above section.

[9] = target: T5, PBP5/6; assay: as above; set-up: species or system P. aeruginosa PAO1; conditions: isolated PAO1 membranes, 4 µg/mL avibactam, 15-60 min; read-out: PBP5/6 total fraction bound
Procedure: as §1, §3

T1 sequence (G3XD46 whole entry): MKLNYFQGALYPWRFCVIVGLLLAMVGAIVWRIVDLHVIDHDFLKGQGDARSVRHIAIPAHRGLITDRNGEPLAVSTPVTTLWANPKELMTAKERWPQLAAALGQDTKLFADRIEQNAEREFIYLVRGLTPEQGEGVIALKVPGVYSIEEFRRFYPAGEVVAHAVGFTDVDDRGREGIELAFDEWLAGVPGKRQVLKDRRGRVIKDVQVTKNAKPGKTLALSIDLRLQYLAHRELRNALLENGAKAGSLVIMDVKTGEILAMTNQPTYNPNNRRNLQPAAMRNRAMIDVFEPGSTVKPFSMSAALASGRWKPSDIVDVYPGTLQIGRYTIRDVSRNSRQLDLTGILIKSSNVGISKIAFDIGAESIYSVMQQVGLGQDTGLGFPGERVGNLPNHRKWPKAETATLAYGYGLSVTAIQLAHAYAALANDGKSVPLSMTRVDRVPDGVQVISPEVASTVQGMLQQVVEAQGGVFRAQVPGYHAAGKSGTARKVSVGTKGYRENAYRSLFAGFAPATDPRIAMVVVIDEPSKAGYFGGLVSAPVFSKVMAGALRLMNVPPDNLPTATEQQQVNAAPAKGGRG
T2 sequence (Q9HZG1 entry or part of it): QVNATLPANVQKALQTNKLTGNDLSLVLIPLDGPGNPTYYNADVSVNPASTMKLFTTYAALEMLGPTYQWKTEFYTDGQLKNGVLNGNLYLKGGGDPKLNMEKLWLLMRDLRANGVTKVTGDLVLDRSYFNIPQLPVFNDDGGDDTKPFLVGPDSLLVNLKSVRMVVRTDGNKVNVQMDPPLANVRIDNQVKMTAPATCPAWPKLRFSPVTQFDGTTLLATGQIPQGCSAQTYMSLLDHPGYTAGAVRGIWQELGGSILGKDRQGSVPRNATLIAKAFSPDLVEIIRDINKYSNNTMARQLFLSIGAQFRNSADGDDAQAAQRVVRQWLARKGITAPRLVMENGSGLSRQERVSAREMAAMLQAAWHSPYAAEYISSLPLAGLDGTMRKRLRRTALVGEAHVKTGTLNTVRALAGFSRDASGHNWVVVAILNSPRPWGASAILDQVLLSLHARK
T5 sequence (G3XD74 entry or part of it): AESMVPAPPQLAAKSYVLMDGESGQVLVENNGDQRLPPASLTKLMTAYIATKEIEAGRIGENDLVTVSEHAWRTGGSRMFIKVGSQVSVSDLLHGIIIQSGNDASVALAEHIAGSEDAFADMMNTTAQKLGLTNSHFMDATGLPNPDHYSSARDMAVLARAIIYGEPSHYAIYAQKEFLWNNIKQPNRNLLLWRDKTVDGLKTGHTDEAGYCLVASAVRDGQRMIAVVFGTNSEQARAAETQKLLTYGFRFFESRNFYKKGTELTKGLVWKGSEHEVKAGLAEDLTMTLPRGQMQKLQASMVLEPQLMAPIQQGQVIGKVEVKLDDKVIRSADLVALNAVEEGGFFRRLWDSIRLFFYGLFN
T4 sequence (Q07806 whole entry): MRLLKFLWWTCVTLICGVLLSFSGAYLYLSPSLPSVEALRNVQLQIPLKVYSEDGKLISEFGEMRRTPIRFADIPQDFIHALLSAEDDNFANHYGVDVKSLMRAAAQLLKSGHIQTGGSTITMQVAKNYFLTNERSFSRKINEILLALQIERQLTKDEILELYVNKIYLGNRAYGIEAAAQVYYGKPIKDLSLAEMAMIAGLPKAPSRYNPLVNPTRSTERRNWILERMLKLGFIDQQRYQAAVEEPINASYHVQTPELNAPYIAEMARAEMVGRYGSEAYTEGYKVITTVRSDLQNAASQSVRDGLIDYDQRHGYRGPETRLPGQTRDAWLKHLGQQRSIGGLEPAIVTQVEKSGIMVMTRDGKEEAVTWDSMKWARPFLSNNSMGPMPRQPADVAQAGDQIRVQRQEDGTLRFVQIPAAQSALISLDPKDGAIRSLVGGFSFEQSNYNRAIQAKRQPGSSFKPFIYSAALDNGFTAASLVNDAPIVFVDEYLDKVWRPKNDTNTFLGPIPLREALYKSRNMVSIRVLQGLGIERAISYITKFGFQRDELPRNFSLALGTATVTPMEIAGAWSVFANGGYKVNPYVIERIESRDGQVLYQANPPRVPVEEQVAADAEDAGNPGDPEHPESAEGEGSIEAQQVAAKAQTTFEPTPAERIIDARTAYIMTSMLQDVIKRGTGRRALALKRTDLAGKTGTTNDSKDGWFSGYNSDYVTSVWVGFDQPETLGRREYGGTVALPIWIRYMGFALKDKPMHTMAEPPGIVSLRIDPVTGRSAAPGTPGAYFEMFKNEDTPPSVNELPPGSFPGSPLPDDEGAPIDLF
Sequence of PBP1b (G3XD31 entry or part of it): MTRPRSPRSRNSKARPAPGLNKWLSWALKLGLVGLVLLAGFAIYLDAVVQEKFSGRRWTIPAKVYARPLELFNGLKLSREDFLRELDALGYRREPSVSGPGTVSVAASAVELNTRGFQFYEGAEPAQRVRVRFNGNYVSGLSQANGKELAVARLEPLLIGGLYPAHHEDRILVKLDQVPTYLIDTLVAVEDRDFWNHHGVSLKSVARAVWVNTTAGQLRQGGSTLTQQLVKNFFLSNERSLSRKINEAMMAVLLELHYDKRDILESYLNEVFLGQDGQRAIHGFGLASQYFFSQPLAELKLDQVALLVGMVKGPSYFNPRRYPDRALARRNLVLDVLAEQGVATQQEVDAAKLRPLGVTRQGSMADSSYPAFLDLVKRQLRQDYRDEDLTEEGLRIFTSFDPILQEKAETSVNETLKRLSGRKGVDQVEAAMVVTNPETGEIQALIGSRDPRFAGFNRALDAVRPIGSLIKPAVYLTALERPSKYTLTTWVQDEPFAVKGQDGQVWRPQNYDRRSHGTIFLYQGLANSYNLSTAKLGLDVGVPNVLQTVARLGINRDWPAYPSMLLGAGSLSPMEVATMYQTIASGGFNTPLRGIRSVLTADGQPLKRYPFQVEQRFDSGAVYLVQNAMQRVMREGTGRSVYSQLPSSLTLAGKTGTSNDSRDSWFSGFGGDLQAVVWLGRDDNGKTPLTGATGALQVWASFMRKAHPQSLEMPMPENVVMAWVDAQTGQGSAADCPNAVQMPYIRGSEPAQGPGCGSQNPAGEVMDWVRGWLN
T3 sequence (Q9X6V3 entry or part of it): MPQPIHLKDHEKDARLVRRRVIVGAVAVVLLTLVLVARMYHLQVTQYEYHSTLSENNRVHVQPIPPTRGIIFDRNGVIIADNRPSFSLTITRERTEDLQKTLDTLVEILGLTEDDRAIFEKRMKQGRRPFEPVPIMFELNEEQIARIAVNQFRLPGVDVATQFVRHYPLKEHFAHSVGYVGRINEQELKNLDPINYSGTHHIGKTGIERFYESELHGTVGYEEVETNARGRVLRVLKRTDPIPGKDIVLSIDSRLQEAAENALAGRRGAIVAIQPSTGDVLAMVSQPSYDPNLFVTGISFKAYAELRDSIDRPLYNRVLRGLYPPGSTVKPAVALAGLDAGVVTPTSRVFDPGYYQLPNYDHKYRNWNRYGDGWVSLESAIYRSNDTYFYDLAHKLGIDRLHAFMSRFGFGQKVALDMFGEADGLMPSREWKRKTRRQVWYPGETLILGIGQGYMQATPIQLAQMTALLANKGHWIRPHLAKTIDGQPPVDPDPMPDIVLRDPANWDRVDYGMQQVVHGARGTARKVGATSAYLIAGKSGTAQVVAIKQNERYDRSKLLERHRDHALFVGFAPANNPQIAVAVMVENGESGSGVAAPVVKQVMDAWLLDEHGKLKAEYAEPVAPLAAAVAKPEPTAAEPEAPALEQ

In the case of `NC(=O)[C@@H]1CC[C@@H]2CN1C(=O)N2OS(=O)(=O)O` [Avibactam], the “Mean IC50 ± SD, PBP 3” value [1] is reported as “no PBP1a and 3 binding was detected”, the IC50 ([1]; read-out: Mean IC50 ± SD, PBP 3 (converted)) is reported as over 121 µM and the inhibition at 4 µg/mL [2] is reported as at most 50%. The PBP2 fraction bound [3] was 20%, the “PBP3 binding in whole-cell assay” value [4] was “No significant” and the “PBP1a binding in whole-cell assay” value [5] was “No significant”. The “PBP5/6 binding in whole-cell assay” value [6] was “No significant”, the inhibition at 4 µg/mL [7] was 20% and the inhibition at 4 µg/mL [8] was at most 68%. It also gave an inhibition at 4 µg/mL [9] of at most 82%.

From PMC8002452, “Molecular Basis of AmpC β-Lactamase Induction by Avibactam in Pseudomonas aeruginosa: PBP Occupancy, Live Cell Binding Dynamics and Impact on Resistant Clinical Isolates Harboring PDC-X Variants” (International Journal of Molecular Sciences, 2021)
